Experimental data from ChEMBL document CHEMBL5335844, “Design, synthesis and preliminary biological evaluation of rivastigmine-INDY hybrids as multitarget ligands against Alzheimer's disease by targeting butyrylcholinesterase and DYRK1A/CLK1 kinases” (RSC Med Chem, 2024).

Tests used:
Cholinesterase = Cholinesterase (Equus caballus, UniProt P81908); assay: Inhibition of equine serum BuChE using butyrylthiocholine iodide as substrate preincubated for 5 mins followed by substrate addition and measured every min for 10 mins by Ellman's method; type: cell-free
Cholinesterase, sequence (P81908 whole entry): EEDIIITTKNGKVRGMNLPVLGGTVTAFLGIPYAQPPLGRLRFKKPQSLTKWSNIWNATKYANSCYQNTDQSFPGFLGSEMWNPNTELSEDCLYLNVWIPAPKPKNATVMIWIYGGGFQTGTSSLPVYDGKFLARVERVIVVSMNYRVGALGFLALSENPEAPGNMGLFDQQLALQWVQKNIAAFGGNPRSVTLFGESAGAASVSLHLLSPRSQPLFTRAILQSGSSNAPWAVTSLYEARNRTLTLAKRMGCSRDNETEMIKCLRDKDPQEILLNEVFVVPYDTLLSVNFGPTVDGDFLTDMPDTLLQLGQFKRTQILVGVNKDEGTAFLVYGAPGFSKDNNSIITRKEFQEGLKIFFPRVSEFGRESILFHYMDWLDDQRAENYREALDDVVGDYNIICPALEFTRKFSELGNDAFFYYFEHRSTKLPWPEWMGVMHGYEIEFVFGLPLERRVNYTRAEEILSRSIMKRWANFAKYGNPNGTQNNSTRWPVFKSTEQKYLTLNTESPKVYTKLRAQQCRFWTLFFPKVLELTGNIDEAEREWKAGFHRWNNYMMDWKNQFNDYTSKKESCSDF

Acetylcholinesterase [1] = target: T1, Acetylcholinesterase (Homo sapiens, UniProt P22303); assay: Inhibition of human erythrocyte AChE at 10 uM using acetylthiocholine iodide as substrate preincubated for 5 mins followed by substrate addition and measured every min for 10 mins by Ellman's method relative to control; conditions: time 15.0 min
T1 sequence (P22303 whole entry): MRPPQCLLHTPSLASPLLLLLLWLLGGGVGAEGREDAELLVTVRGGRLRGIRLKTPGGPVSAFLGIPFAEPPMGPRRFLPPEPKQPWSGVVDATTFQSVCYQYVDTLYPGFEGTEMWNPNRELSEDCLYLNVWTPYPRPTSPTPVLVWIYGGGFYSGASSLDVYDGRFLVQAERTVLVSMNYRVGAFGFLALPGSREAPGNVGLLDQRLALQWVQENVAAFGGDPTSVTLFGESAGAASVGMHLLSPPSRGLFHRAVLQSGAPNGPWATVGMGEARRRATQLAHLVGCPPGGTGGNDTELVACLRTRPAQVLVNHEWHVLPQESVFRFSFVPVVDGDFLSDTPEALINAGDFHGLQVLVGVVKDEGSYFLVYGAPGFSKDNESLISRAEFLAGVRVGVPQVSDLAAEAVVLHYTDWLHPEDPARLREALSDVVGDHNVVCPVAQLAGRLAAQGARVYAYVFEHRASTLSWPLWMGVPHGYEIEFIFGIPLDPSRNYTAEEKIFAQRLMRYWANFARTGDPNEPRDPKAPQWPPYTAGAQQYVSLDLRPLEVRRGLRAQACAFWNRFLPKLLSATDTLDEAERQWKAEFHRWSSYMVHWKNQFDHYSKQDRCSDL

[2] = target: T2, Dual specificity tyrosine-phosphorylation-regulated kinase 1A (Homo sapiens, UniProt Q13627); assay: Inhibition of human DYRK1A at 10 uM using RRRFRPASPLRGPPK as substrate incubated for 40 mins in presence of Mg/[gamma-33P]-ATP by scintillation counting method relative to control
[3] = target: T3, Dual specificity protein kinase CLK1 (Homo sapiens, UniProt P49759); assay: Inhibition of human CLK1 using ERMRPRKRQGSVRRRV as substrate incubated for 40 mins in presence of Mg/[gamma-33P]-ATP by scintillation counting method
Target sequence in this assay (P49759 whole entry): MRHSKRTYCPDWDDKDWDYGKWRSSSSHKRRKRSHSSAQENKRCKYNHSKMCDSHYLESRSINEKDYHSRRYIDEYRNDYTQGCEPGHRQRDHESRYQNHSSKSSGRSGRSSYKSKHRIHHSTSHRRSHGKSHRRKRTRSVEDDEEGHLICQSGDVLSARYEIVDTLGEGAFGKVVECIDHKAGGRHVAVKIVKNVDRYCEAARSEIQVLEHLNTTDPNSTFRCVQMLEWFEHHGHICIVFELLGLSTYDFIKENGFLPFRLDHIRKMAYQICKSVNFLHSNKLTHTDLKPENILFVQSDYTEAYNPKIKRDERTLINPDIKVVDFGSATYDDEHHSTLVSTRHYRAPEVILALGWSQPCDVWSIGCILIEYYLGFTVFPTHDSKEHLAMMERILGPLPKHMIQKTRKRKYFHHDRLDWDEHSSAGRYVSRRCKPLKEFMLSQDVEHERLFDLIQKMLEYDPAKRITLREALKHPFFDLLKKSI

[4] = Chromatographic hydrophobicity index, logD of the compound at pH 7.4 by reversed phase HPLC analysis; type: physicochemical; conditions: buffer
[5] = Solubility of the compound in PBS at pH 7.4 by HPLC analysis; type: physicochemical; conditions: buffer
[6] = target: Cholinesterase (Equus caballus) (UniProt P81908); assay: Inhibition of equine serum BuChE at 10 uM using butyrylthiocholine iodide as substrate preincubated for 5 mins followed by substrate addition and measured every min for 10 mins by Ellman's method relative to control; type: cell-free; conditions: time 15.0 min
Cholinesterase (Equus caballus), sequence (P81908 whole entry): as the sequence (P81908 whole entry) above

Acetylcholinesterase [7] = target: T1, Acetylcholinesterase; assay: Inhibition of human erythrocyte AChE using acetylthiocholine iodide as substrate preincubated for 5 mins followed by substrate addition and measured every min for 10 mins by Ellman's method
[8] = target: T3, Dual specificity protein kinase CLK1; assay: Inhibition of human CLK1 at 10 uM using ERMRPRKRQGSVRRRV as substrate incubated for 40 mins in presence of Mg/[gamma-33P]-ATP by scintillation counting method relative to control
Target sequence in this assay (P49759 whole entry, looked up): as the sequence (P49759 whole entry) above

[9] = target: T2, Dual specificity tyrosine-phosphorylation-regulated kinase 1A; assay: Inhibition of human DYRK1A using RRRFRPASPLRGPPK as substrate incubated for 40 mins in presence of Mg/[gamma-33P]-ATP by scintillation counting method

## CCCCCCCNC(=O)Oc1ccc2c(c1)N(Cc1ccccc1)/C(=C/C(C)=O)S2
Cholinesterase
  IC50: 0.154 µM
Acetylcholinesterase [1]
  inhibition: < 10%

## CC(=O)/C=C1\Sc2ccc(O)cc2N1Cc1ccc(Cl)cc1
[2]
  inhibition: 75%
[3]
  IC50: 0.04 µM

## CCN(C)C(=O)Oc1ccc2c(c1)N(Cc1ccccc1)/C(=C/C(C)=O)S2
Cholinesterase
  IC50: 0.068 µM
Acetylcholinesterase [1]
  inhibition: < 10%
[4]
  chromatographic logD: 3
[5]
  solubility: Soluble

## CCN1/C(=C/C(C)=O)Sc2ccc(OC(=O)N(C)C)cc21
Cholinesterase
  IC50: > 10 µM
[6]
  inhibition: 25%

## CCN1/C(=C/C(C)=O)Sc2ccc(OC(=O)NCCc3ccccc3)cc21
Cholinesterase
  IC50: 6 µM
Acetylcholinesterase [7]
  IC50: 20 µM

## CCN1/C(=C/C(C)=O)Sc2ccc(OC(=O)NCc3cccnc3)cc21
Cholinesterase
  IC50: 12 µM
Acetylcholinesterase [7]
  IC50: 34 µM

## CCCCCCCNC(=O)Oc1ccc2c(c1)N(Cc1cccc(C)c1)/C(=C/C(C)=O)S2
Cholinesterase
  IC50: 0.761 µM

## CCCCCCCNC(=O)Oc1ccc2c(c1)N(Cc1cccc(OC)c1)/C(=C/C(C)=O)S2
Cholinesterase
  IC50: 2.19 µM

## CC(=O)/C=C1\Sc2ccc(O)cc2N1Cc1ccc2ccccc2c1
[2]
  inhibition: 24%
[8]
  inhibition: 72%

## CCCCCCCNC(=O)Oc1ccc2c(c1)N(CCc1ccccc1)/C(=C/C(C)=O)S2
Cholinesterase
  IC50: 0.0267 µM
Acetylcholinesterase [1]
  inhibition: < 10%
[4]
  chromatographic logD: 4.36

## CCCCCCCNC(=O)Oc1ccc2c(c1)N(Cc1ccc(Cl)cc1)/C(=C/C(C)=O)S2
Cholinesterase
  IC50: 0.821 µM

## CCCCCCNC(=O)Oc1ccc2c(c1)N(Cc1ccccc1)/C(=C/C(C)=O)S2
Cholinesterase
  IC50: 0.47 µM
Acetylcholinesterase [1]
  inhibition: < 10%

## CC(=O)/C=C1\Sc2ccc(O)cc2N1Cc1cccc(Cl)c1
[9]
  IC50: 0.885 µM
[3]
  IC50: 0.033 µM

## COc1cccc(CN2/C(=C/C(C)=O)Sc3ccc(O)cc32)c1
[9]
  IC50: 0.883 µM
[3]
  IC50: 0.076 µM

## CCCCCCCNC(=O)Oc1ccc2c(c1)N(Cc1ccc3ccccc3c1)/C(=C/C(C)=O)S2
Cholinesterase
  IC50: > 10 µM

## CC(=O)/C=C1\Sc2ccc(O)cc2N1Cc1ccccc1
[9]
  IC50: 0.529 µM
[3]
  IC50: 0.054 µM

## CCCCNC(=O)Oc1ccc2c(c1)N(Cc1ccccc1)/C(=C/C(C)=O)S2
Cholinesterase
  IC50: > 10 µM
[6]
  inhibition: 22%

## CCCCCCCNC(=O)Oc1ccc2c(c1)N(CC)/C(=C/C(C)=O)S2
Cholinesterase
  IC50: 1.64 µM

## CC(=O)/C=C1\Sc2ccc(O)cc2N1CCc1ccccc1
[9]
  IC50: 0.106 µM
[3]
  IC50: 0.017 µM

## CC(=O)/C=C1\Sc2ccc(O)cc2N1Cc1cccc(C)c1
[9]
  IC50: 0.429 µM
[3]
  IC50: 0.039 µM

## CCCCCCCNC(=O)Oc1ccc2c(c1)N(Cc1cccc(Cl)c1)/C(=C/C(C)=O)S2
Cholinesterase
  IC50: 0.703 µM

## CCN1/C(=C/C(C)=O)Sc2ccc(OC(=O)NC3CCCCC3)cc21
Cholinesterase
  IC50: 13 µM
Acetylcholinesterase [7]
  IC50: 11 µM

## CCCCCCNC(=O)Oc1ccc2c(c1)N(CC)/C(=C/C(C)=O)S2
Cholinesterase
  IC50: 2 µM
Acetylcholinesterase [7]
  IC50: 14 µM

## CCN(C)C(=O)Oc1ccc2c(c1)N(CCc1ccccc1)/C(=C/C(C)=O)S2
Cholinesterase
  IC50: 0.439 µM
Acetylcholinesterase [1]
  inhibition: < 10%
